Calls of active or inactive are those of the source.
How the values were obtained:
[1] = M. tuberculosis H37Rv growth inhibitors, H37Rv strain (AID 1626); assay type: functional
[2] = system: CHO-K1; test: (§1) Counterscreen for antagonists of the orexin 1 receptor (OX1R; HCRTR1): Homogeneous time resolved fluorescence (HTRF)-based cell-based dose response assay to identify antagonists of the parental CHO-K1 cell line. [Related pubchem assays (depositor defined):AID434989, AID435008, AID463079, AID485270, AID492963, AID492964, AID492965, AID493232, AID504699, AID504701]; assay type: functional; conditions: Cricetulus griseus
[3] = as §1, with “Fluorescence-based” for “Homogeneous time resolved fluorescence (HTRF)-based”, “cell-based high throughput” for “cell-based”, “CHO” for “CHO-K1”; assay type: functional
[4] = biological target: T1, Orexin/Hypocretin receptor type 1 (Homo sapiens, UniProt O43613); test: Homogeneous Time Resolved Fluorescence (HTRF)-based cell-based high throughput dose response assay for antagonists of the orexin 1 receptor (OX1R; HCRTR1). [Related pubchem assays (depositor defined):AID434989, AID435008, AID463079, AID485270, AID492963, AID492964, AID492965, AID493232, AID504717, AID504718]; assay type: functional
T1 sequence (O43613 whole entry): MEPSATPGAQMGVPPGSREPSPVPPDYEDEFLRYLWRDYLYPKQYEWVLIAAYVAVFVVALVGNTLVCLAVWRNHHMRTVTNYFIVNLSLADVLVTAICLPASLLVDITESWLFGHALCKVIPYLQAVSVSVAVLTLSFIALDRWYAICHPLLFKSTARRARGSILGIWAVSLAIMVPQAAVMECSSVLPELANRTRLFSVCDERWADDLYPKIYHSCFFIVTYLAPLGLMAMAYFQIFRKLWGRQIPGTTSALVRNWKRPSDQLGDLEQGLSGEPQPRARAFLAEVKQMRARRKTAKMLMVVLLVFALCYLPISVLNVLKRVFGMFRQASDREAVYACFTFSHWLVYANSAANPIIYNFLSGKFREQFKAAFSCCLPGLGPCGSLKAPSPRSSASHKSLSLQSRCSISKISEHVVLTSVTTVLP

[5] = biological target: T1, Orexin/Hypocretin receptor type 1; test: Fluorescence-based cell-based high throughput dose response assay for antagonists of the orexin 1 receptor (OX1R; HCRTR1). [Related pubchem assays (depositor defined):AID434989, AID435008, AID463079, AID485270, AID492963, AID492964, AID492965, AID493232, AID504717, AID504718]; assay type: functional
[6] = biological target: T2, Orexin receptor type 2 (Homo sapiens, UniProt O43614); test: Counterscreen assay for antagonists of the orexin 1 receptor (OX1R; HCRTR1): Fluorescence-based cell-based dose response assay for antagonists of the orexin 2 receptor (OX2R; HCRTR2), run by assay provider.; assay type: functional
T2 sequence (O43614 whole entry): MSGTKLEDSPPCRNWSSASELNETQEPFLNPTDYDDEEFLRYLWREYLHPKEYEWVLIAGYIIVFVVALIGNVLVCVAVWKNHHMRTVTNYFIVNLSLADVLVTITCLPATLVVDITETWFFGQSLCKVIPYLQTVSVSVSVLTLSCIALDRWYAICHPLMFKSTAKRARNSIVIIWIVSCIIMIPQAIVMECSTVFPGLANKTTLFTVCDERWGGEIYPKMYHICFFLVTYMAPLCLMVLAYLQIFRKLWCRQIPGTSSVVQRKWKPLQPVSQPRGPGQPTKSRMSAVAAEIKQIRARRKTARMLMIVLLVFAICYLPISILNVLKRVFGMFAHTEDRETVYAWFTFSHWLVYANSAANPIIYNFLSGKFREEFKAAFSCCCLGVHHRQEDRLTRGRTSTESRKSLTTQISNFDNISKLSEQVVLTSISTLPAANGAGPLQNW

[7] = biological target: T2, Orexin receptor type 2; test: Counterscreen assay for antagonists of the orexin 1 receptor (OX1R; HCRTR1): Homogeneous Time Resolved Fluorescence (HTRF)-based cell-based dose response assay for antagonists of the orexin 2 receptor (OX2R; HCRTR2), run by assay provider.; assay type: functional
[8] = biological target: T3, Oxysterols receptor LXR-beta (Homo sapiens, UniProt P55055); assay type: functional, cell-based;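 note: Cell-based luminescence dose-response assay of agonist activity at LXR, run as a confirmatory counterscreen to a daf-12 agonist screen; HEK293 cells with Gal4-LXR fusion and GAL4-driven luciferase reporter; agonist potency from rising luciferase signal of a Gal4-LXR reporter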
T3 sequence (P55055 whole entry): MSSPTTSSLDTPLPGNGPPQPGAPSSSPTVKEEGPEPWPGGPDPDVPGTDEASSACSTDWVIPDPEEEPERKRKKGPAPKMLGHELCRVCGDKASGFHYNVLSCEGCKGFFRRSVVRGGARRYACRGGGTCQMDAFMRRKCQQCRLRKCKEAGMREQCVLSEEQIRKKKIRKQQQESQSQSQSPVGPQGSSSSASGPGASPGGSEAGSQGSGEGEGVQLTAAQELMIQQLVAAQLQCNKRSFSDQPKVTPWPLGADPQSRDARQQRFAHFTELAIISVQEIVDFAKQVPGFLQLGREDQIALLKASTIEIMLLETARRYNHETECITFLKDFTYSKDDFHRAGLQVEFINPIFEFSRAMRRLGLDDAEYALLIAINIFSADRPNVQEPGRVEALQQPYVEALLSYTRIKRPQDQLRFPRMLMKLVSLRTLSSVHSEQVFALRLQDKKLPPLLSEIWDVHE

[9] = cells
[10] = biological target: Caspase-6 (Homo sapiens, UniProt P55212); test: inhibition of CASP6 peptide cleavage – biochemical, VEID-R110 fluorescence, cherry-pick, dose response (AID 720632)
[11] = biological target: Prothrombin (Homo sapiens, UniProt P00734); test: Thrombin 1536 HTS Dose Response Confirmation. [Related pubchem assays: 1046 (Thrombin 1536 HTS; hits were confirmed in this assay)]; assay type: functional
[12] = system: Streptococcus sp. 'group A'; test: Streptococcus pyogenes SK(-)GAS viability under kanamycin – luminescence, BacTiterGlo, confirmation, counter-screen for streptokinase expression inhibitor project, dose response (AID 1900); assay type: functional, organism-based
[13] = M. tuberculosis growth inhibition, HTS (AID 449762); assay type: functional
[14] = system: Streptococcus; test: GAS UMAA2166 growth inhibition – luminescence, BacTiterGlo, counter-screen for streptokinase expression inhibitor project, dose response (AID 1915); assay type: functional, organism-based;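 note: potency for reduction of bacterial viability or growth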
[15] = A cytotoxicity screen of small molecule inhibitors of the PhoP region in Salmonella typhi identified in the primary screen. [Related pubchem assays: 1850, 1864, 1985 ]; assay type: functional
[16] = biological target: Kallikrein-7 (Homo sapiens, UniProt P49862); test: Fluorescence Intensity-based biochemical primary high throughput dose response assay to identify activators of kallikrein-7 (K7) zymogen.
[17] = Luminescence-based dose response cell-based high throughput screening assay for cytotoxic compounds using the IEC-6 intestinal epithelial cell line. [Related pubchem assays: 1858 (Summary AID.), 1825 (Counterscreen.), 1907 (Confirmation screen.)]; assay type: functional
[18] = HEK-293T cell viability reduction – luminescence, B-cell screen hits, cytotoxicity control for BCR NF-kB inhibitor project, dose response (AID 489021); assay type: functional, cell-based;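 note: HEK-293T cells carrying an NF-kB luciferase reporter; cells exposed to compound for about 14 hours before viability readout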
[19] = inhibitors acting on PAX2 in cells – cell-based, plate reader, dry powder samples, selectivity assay for PAX8 inhibitor project, dose response (AID 743048); assay type: functional;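 note: HEK293 cells carrying a WT1 promoter luciferase reporter driven by expressed Pax2; potency is for inhibition of Pax2 driven reporter signal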
[20] = COV362 cell viability loss – plate reader, dry powder, SA12, cytotoxicity control for PAX8 inhibitor project, dose response (AID 743144); assay type: functional, cell-based
[21] = A2780 cell killing – plate reader, dry powder samples, cytotoxicity control, dose response (AID 743046); assay type: functional, cell-based
[22] = IGROV1 cell killing – plate reader, dry powder samples, PAX8 inhibitor project, dose response (AID 743043); assay type: functional, cell-based; conditions: IGROV-1
[23] = COV434 cell viability loss – plate reader, dry powder, SA7, cytotoxicity control for PAX8 inhibitor project, dose response (AID 743145); assay type: functional, cell-based
[24] = HIV-1 Vif–A3G interaction blockers – biochemical, TR-FRET, GST-Vif 1-94, biotin-A3G peptide, dose response retest, primary screen (AID 1117319); assay type: functional;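 note: TR-FRET signal of purified GST-Vif binding a biotinylated A3G peptide; inhibitors lower the FRET signal by blocking Vif and A3G binding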

Chain of Caspase-6 (P55212 24-179 limits assumed): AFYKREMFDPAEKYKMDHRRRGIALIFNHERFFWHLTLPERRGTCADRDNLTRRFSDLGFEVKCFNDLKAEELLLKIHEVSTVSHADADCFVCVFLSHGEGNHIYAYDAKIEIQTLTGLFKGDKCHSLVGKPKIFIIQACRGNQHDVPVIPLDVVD
Chain of Caspase-6 (P55212 194-293 limits assumed): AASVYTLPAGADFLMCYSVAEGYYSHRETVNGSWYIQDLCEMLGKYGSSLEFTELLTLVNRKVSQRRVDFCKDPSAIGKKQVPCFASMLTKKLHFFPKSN
Chain of Kallikrein-7 (P49862 whole entry): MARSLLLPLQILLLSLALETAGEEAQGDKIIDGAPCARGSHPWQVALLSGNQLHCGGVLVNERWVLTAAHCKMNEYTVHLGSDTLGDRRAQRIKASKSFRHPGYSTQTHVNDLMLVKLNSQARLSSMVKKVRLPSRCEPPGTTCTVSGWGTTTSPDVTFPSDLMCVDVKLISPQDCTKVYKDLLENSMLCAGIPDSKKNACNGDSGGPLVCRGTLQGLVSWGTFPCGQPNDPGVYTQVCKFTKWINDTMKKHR

CCOC(=O)c1ccc(NC(=O)CSc2nnc(COc3ccccc3OC)n2C)cc1
IC50 [1]: > 100 µM (active)

Nn1c(-c2cccs2)nc2sc3c(c2c1=O)CCCC3
IC50 [2]: > 66.2 µM (inactive) | IC50 [3]: > 49.7 µM (inactive) | IC50 [4]: 2.98 µM (active) | IC50 [5]: 18.1 µM (inactive) | IC50 [6]: 31.2 µM (inactive) | IC50 [7]: > 50 µM (inactive) | EC50 [8]: > 67.5 µM (inactive) | EC50 [9]: > 67.5 µM (inactive)

CCOc1ccccc1NC(=O)Cc1cccs1
AC50 [10]: 16.7 µM (active)

CCC(=O)n1nc(-c2ccc(Cl)cc2)nc1NCc1ccccc1
IC50 [11]: 1.75 µM (active)

Cc1ccc(S(=O)(=O)CN=C(S)c2ccc3ccccc3c2)cc1
EC50 [12]: 3.01 µM (active) | IC50 [13]: > 100 µM (active) | EC50 [14]: > 150 µM (not active)

Cc1cc(N=Nc2ccc(C)c(N=Nc3cc(C)c(N)cc3N)c2)c(N)cc1N
EC50 [15]: > 50 µM (active) | EC50 [8]: > 67.5 µM (inactive) | EC50 [9]: > 67.5 µM (inactive)

CC(=O)Nc1cc2c3c(cccc3c1)-c1ccccc1-2
EC50 [16]: 8.84 µM (active)

Cc1[nH]c2ccccc2c1/C=N/Nc1nc(Nc2ccc(F)cc2)nc(N2CCOCC2)n1
IC50 [17]: 1.09 µM (active) | IC50 [18]: 51.2 µM (inactive)

N#C[C@H]1[C@@H](c2ccc(C#Cc3cccc(F)c3)cc2)[C@@H](CO)N1C(=O)C1CCCC1
AC50 [19]: > 70 µM (inactive) | AC50 [20]: > 70 µM (inactive) | AC50 [21]: 17.6 µM (active) | AC50 [22]: 10.6 µM (active) | AC50 [23]: > 70 µM (inactive)

COc1ccc(/C=N/NC2=NC(=O)C(c3ccccc3)S2)c(OC)c1 (stereo unspecified)
IC50 [24]: > 100 µM (active)

— ChEMBL document CHEMBL1201862, “PubChem BioAssay data set” (2004)
